Test results taken from publication PMC9735595, “Advanced EPI-X4 Derivatives Covalently Bind Human Serum Albumin Resulting in Prolonged Plasma Stability” (International Journal of Molecular Sciences, 2022).
Ends that are not written are not given here. Peptide text beside a SMILES is read from it. * marks the point of attachment. Cam = NC(=O)C*

Key:
[1] = Functional plasma stability assay (remaining activity in CXCR4 antibody competition after incubation in plasma); type: in vitro ADME, human; details: 37 °C; for half-life in human plasma, functional assay: 20 µM in 100% pooled human K3 EDTA plasma (6 donors), aliquots serially diluted in cold PBS, 12G5-APC competition on SupT1 cells, 2 h at 4 °C, flow cytometry, activity = IC50(t)/IC50(t=0) x 100, one-phase decay, 3 rounds of plasma incubation
Experimental: For the functional assay, WSC02 (a) or JM#21 (b) were spiked into human plasma and incubated at 37 °C. At indicated time points, aliquots were taken and serially diluted in cold PBS. […] After 2 h, unbound antibody was removed, and cells were analyzed by flow cytometry. Remaining activity was determined described before. For detection by mass spectrometry, WSC02 (a) or JM#21 (b) were spiked into plasma and incubated at 37 °C. and analyzed in LC-MS/MS. Half-lives were calculated using a one-phase decay model in GraphPad Prism. Curve fits are shown as dashed lines. Data shown are derived from 3 individual rounds of plasma incubation ± SEM.
(§1) SupT1 cells were cultured in RPMI supplemented with 10% FCS, 100 units/mL penicillin, 100 µg/mL streptomycin, 2 mM L-glutamine, and 1 mM HEPES (Gibco). Blood was collected from healthy donors (male and female, average age 28 years) using S-Monovettes K3 EDTA (Sarstedt). Plasma was obtained by centrifugation of whole blood at 2.500× g for 15 min. Plasma of 6 donors was pooled and stored at −80 °C.
Competition of compounds with an APC-labeled antibody specific for ECL2 of CXCR4 (clone 12G5) was performed in SupT1 cells as described. For this, cells (without buffer) were precooled at 4 °C and a serial dilution of compounds in PBS together with a constant concentration of antibody diluted in buffer (PBS with 1% FCS) was added. After 2 h at 4 °C, unbound antibody was removed and cells analyzed in flow cytometry (CytoFLEX, Beckman Coulter). Mean fluorescence signals (MFI) in the presence of PBS only was set 100%. Isotype control was set 0%. Half-maximal inhibitory concentrations (IC50) were calculated in GraphPad Prism by nonlinear regression.
Decrease in CXCR4-binding activity after incubation of compounds in human plasma was determined to calculate functional stability as described (Harms et al. 2020). For this purpose, the peptides were dissolved at a concentration of 20 µM in 100% plasma. The first aliquot (t = 0) was immediately taken and stored at −80 °C. Aliquots were taken at given time points and also stored. To determine CXCR4 binding, all aliquots were thawed together and serially diluted in ice-cold PBS and subsequently, antibody competition was performed as described before. IC50 at t = 0 defined as 100% activity and decrease in activity was calculated by IC50 (t)/IC50 (t = 0) × 100. Half-lives were determined by one-phase decay using GraphPad Prism.

[2] = Half-life determination in plasma by mass spectrometry (LC-MS/MS); type: in vitro ADME, human; details: 37 °C, one-phase decay; for half-life in human plasma, mass spectrometry, samples diluted with 0.1% TFA / half-life at 7 µM: 7 µM in human plasma; for half-life in human plasma, mass spectrometry, samples diluted with 0.1% TFA: aliquots diluted in 0.1% TFA only, LC-MS/MS peak area of intact free peptide, triplicate; for half-life at 7 µM / half-life: both sexes, pooled K3 EDTA plasma, 3 rounds; for half-life at 7 µM: TFA samples ten-fold diluted with 50 mM NH4HCO3 + 10 mM DTT + 6M GuHCl before LC-MS/MS, read-out: half-life in human plasma, mass spectrometry, after GuHCl + DTT ("real" half-live); for half-life: human plasma, LC-MS/MS of intact peptide normalized to t = 0, sample treatment for the variants not stated, read-out: half-life in human plasma, mass spectrometry, peptides without a reactive Cys-thiol
Experimental: A 50 µL-aliquot of human plasma was spiked with 7 µM JM#21 or WSC02. The mixture was stirred for a few seconds and incubated at 37 °C. Five microliter aliquots were separated after 0, 5, 10, 20, 30, 45, 60, 90, and 120 min. Aliquots were immediately diluted with 1.5 mL 0.1% TFA and stored at −80 °C. The experiment was performed in triplicate. Additionally, for the measurement of denatured samples prior to MS measurement, all of the samples stored in 0.1% TFA were ten-fold diluted with 50 mM NH4HCO3 + 10 mM DTT + 6M GuHCl. A 15 uL-aliquot of every sample was used for mass spectrometry analysis as follows: samples were measured using an Orbitrap Elite Hybrid mass spectrometry system (Thermo Fisher Scientific, Bremen, Germany) online coupled to an U3000 RSLCnano (Thermo Fisher Scientific, Idstein, Germany) employing an Acclaim PepMap analytical column (75 μm × 500 mm, 2 μm, 100 Å, Thermo Fisher Scientific, Bremen, Germany) at a flow rate of 250 nL/min. Using a C18 μ-precolumn (0.3 mm × 5 mm, PepMap, Dionex LC Packings, Thermo Fisher Scientific, Bremen, Germany), samples were preconcentrated and washed with 0.1% TFA for 5 min at a flow rate of 30 μL/min. The subsequent separation was carried out using a binary solvent gradient consisting of solvent A (0.1% FA) and solvent B (86% ACN, 0.1% FA). The column was initially equilibrated in 5% B. In the first elution step, the percentage of B was raised from 5 to 15% in 5 min, followed by an increase from 15 to 40% B in 30 min. The column was washed with 95% B for 4 min and re-equilibrated with 5% B for 19 min. The mass spectrometer was equipped with a nanoelectrospray ion source and distal-coated SilicaTips (FS360-20-10-D, New Objective, Woburn, MA, USA). The instrument was externally calibrated using standard compounds (LTQ Velos ESI Positive Ion Calibration Solution, Pierce, Thermo Scientific, Rockford, IL, USA). The system was operated using the following parameters: spray voltage, 1.5 kV; capillary temperature, 250 °C; S-lens RF level, 68.9%. XCalibur 2.2 SP1.48 (Thermo Fisher Scientific, Bremen, Germany) was used for data-dependent tandem mass spectrometry (MS/MS) analyses. Full scans ranging from m/z 370 to 1700 were acquired in the Orbitrap at a resolution of 30,000 (at m/z 400) with automatic gain control (AGC) enabled and set to 106 ions and a maximum fill time of 500 ms. Up to 20 multiply-charged peptide ions were selected from each survey scan for collision-induced fragmentation (CID) in the linear ion trap using AGC set to 10,000 ions and a maximum fill time of 100 ms. For MS/MS fragmentation, normalized collision energy of 35% with an activation q of 0.25 and an activation time of 30 ms was used.
For visualization in the XCalibur Qual Browser 2.0 (Thermo Fisher Scientific, Bremen, Germany), extracted ion xhromatograms (XICs) of the most intense isotope (±20 ppm), as theoretically predicted, at z = 3 or z = 4 were calculated. Using default parameters within the QualBrowser, peak areas were calculated and exported. Half-lives were determined by fitting the data (peak area vs. time) to a one-phase exponential decay model using GraphPad Prism 8.4.3 (GraphPad Prism Software LLC, San Diego, CA, USA).
(§2) The influence of several reagents on peptide detection was tested with aliquots separated (peptide + plasma, 300-fold diluted in 0.1%TFA) at t = 10 min. The aliquots were analyzed by LC-MS/MS, as previously described, after 10-fold dilution in 0.1% TFA, 6M GuHCl, 50 mM NH4HCO3 + 10 mM DTT, and 50 mM NH4HCO3 + 10 mM DTT + 6M GuHCl, respectively.
as §1

[3] = target: T1, human serum albumin (HSA) (Homo sapiens, UniProt P02768); assay: Interaction with plasma components: size-exclusion fractionation and tryptic digestion of spiked plasma, LC-MS/MS; type: in vitro ADME; details: plasma spiked with peptide, 37 °C, 10 min; SEC fractions treated with DTT + GuHCl; tryptic digest LC-MSMS
T1 construct: from tissue; host or cells: human plasma
Experimental: as §2
A 5 µL aliquot of the peptides in plasma, after incubation at 37 °C for 10 min, was injected into a size-exclusion column Yarra SEC-2000 (Phenomenex, CA, USA) of dimensions 7.8 × 300 mm, 3 µm particle size. The separation was done at a flow rate of 0.5 mL/min using a buffer composed of 25 mM NaH2PO4 + 25 mM Na2HPO4 + 250 mM KCl (pH 6.65). Fractions were collected every one minute, and then analyzed by mass spectrometry in denaturing conditions (1/10 in 50 mM NH4HCO3 + 10 mM DTT + 6M GuHCl) as previously described.
A 5 µL aliquot of plasma spiked with WSC02 or JM#21 was mixed with trypsin (50:1) and incubated at 37 degrees for 16 h. Half of the digested sample was reduced and carbamidomethylated, as described above. The digested samples, both unmodified and carbamidomethylated, were analyzed by mass spectrometry, as previously described in this section.

CXCR4 = details: cited from earlier work
Source text: In addition, both peptides contain a cystein ...

[4] = human plasma, antibody competition read-out, 3 rounds
[5] = human plasma, 30 min, antibody competition read-out, 3 rounds

T1 sequence (P02768 25-609): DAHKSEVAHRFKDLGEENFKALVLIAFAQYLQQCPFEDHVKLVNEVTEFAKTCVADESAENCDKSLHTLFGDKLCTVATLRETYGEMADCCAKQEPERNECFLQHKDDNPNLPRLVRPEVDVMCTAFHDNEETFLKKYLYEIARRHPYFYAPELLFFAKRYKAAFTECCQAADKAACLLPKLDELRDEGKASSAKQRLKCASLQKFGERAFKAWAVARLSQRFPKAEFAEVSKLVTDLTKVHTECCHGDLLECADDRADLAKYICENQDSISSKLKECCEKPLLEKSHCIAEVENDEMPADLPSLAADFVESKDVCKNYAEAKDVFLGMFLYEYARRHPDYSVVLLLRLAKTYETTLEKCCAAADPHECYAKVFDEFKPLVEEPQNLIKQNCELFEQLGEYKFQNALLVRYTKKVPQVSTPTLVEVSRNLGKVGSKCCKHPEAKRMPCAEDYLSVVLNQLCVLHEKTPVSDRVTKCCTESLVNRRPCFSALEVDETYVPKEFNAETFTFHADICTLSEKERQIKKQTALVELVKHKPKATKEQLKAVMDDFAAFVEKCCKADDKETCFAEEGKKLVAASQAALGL

Row | Compound | half-life in human plasma, functional assay [1] [min] | half-life in human plasma, functional assay ([1]; listed as JM#21) [min] | activity decreased by (loss of activity) after 15 min in plasma [1, 4] [%] | remaining activity after 30 min in plasma [1, 5] [%] | half-life in human plasma, mass spectrometry, samples diluted with 0.1% TFA [2] [min] | half-life at 7 µM [2] [min] | interaction with human serum albumin in plasma (in words) [3] | higher antagonistic activity as compared with EPI-X4 (CXCR4) [fold] | half-life [2] [min] | activity reduced by (loss of activity) after 30 min in plasma [1, 5] [%] | half-life in human plasma, functional assay ([1]; listed as WSC02) | remaining activity after 60 min in plasma ([1]; human plasma, 60 min, antibody competition read-out, 3 rounds) [%]
1 | CC[C@H](C)[C@H](N)C(=O)N[C@@H](CC(C)C)C(=O)N[C@@H](CCCNC(=N)N)C(=O)N[C@@H](Cc1c[nH]c2ccccc12)C(=O)N[C@@H](CO)C(=O)N[C@@H](CCCNC(=N)N)C(=O)N[C@@H](CCCCN)C(=O)N[C@@H](CC(C)C)C(=O)N1CCC[C@H]1C(=O)N[C@@H](CS)C(=O)N[C@H](C(=O)N[C@@H](CO)C(=O)O)C(C)C [EPI-X4 JM#21] | 6 | ~6 | 69 | 10 | 1.7 | 5 | forming a disulfide bridge with a free thiol group (Cys34) on HSA | ~300 |  |  |  | 
2 | CC[C@H](C)[C@H](N)C(=O)N[C@@H](CC(C)C)C(=O)N[C@@H](CCCNC(=N)N)C(=O)N[C@@H](Cc1c[nH]c2ccccc12)C(=O)N[C@@H](CO)C(=O)N[C@@H](CCCNC(=N)N)C(=O)N[C@@H](CCCCN)C(=O)N[C@@H](CC(C)C)C(=O)N1CCC[C@H]1C(=O)N[C@@H](CSCC(N)=O)C(=O)N[C@H](C(=O)N[C@@H](CO)C(=O)O)C(C)C [JM#21 Cdm] | 3 |  | 95 |  |  |  |  |  | 3 |  |  | 
3 | CC[C@H](C)[C@H](N)C(=O)N[C@H](C(=O)N[C@@H](CCCNC(=N)N)C(=O)N[C@@H](Cc1c[nH]c2ccccc12)C(=O)N[C@@H](CO)C(=O)N[C@@H](CCCCN)C(=O)N[C@@H](CCCCN)C(=O)N[C@H](C(=O)N1CCC[C@H]1C(=O)N[C@@H](CSCC(N)=O)C(=O)N[C@H](C(=O)N[C@@H](CO)C(=O)O)C(C)C)C(C)C)C(C)C [WSC02 Cdm] (H-IVRWSKKVPC(Cam)VS-OH) | 6 |  |  |  |  |  |  |  | 5 | 93 |  | 
4 | ILRWSRKLPSVS [JM#21 C10S] | 4 |  | 91 |  |  |  |  |  | 4 |  |  | 
5 | IVRWSKKVPCVS [EPI-X4 WSC02] | 9 |  |  |  | 0.7 | 6 | forming a disulfide bridge with a free thiol group (Cys34) on HSA |  |  |  | about 9 min | 20
6 | IVRWSKKVPSVS [WSC02 C10S] | 7 |  |  |  |  |  |  |  | 4 | 92 |  | 
